Test results taken from US11253594B2, “Drug combinations for protecting against neuronal cell death” (UNIVERSITY OF PITTSBURGH-OF THE COMMONWEALTH SYSTEM OF …, priority 2017, dated 2022).

Test system: STHdh^Q111 cells
Experiment: 384-well PI (propidium iodide) assay, protection from mHTT induced cell death
Type: cell-based, mouse
Settings: FIG. 10
Experimental: The well-established STHdh^Q111 cell model for HD was employed to identify compounds that can protect neuronal cells from mHTT-dependent cell death. […] The propidium iodide (PI) readout enables an unbiased assessment of cell death by measuring an irreversible step that is common to all cytotoxic mechanisms.
The stress conditions for testing compounds involved incubation of the cells in serum-free medium at 37° C. and 5% CO2.
Prior to compound treatment, medium was removed and the cells washed once with PBS (pH=7.4) after which 45 μl of complete medium was added. Compounds in 5 μl complete medium were added to cells. […] Compounds in serum free medium (5 μl) were added and cells were incubated at 37° C. and 5% CO2.
Image analysis was carried out using the Multiwavelength Cell Scoring application in the MetaXpress software. The nuclear compartment was identified in Ch1 with a threshold intensity of 2,000 above background and the Texas Red compartment was identified in Ch2 with a threshold intensity of 20,000 above background.
For the analyses presented here the Percent Recovery was calculated from the Percent PI positive cells by:
[formula] where positive controls are the STHdh^Q7 cells, and negative controls are the STHdh^Q111 cells treated with DMSO
The LOPAC library was screened in the 384-well PI assay at 30, 10, and 3 μM.

## CCOc1ccc2nc(S(C)(=O)=O)sc2c1 [methyl sulfonyl analog of ETX, 6-ethoxy-2-(methylsulfonyl) benzo[d]thiazole]
  efficacy relative to ethoxzolamide: equally efficacious
Maximal protection
  STHdh^Q111 cells protected: ~50%
Propidium iodide assay
  potency in protecting STHdh^Q111 cells relative to ETX: 7 fold
